This note sets out measurements from patent publication US10933063B2 (priority 2017, dated 2021).

One experiment has as its target LYN (Homo sapiens (Human), UniProt P07948). The note with it: read-out: LYN IC50, [ATP]=20 μM.
Experiment [1] concerns the target T1, BTK (Homo sapiens (Human), UniProt Q06187).
Protocol: (§1) Btk kinase activity was determined using a homogenous time resolved fluorescence (HTRF) methodology. Measurements were performed in a reaction volume of 15 μL using 384-well assay plates. Kinase enzyme, inhibitor, ATP and 1 μM peptide substrate were incubated in a reaction buffer compose of Hepes50 mM (pH7.0), NaN3 0.02%, BSA 0.01%, Orthocanadate 0.1 mM. […] For each compound, enzyme activity as measured at various concentrations of compound, Negative control reactions were performed in the absence of inhibitor in two replicates and eight no enzyme controls were used to determine baseline fluorescence levels.
In the next experiment the target is ITK (Homo sapiens (Human), UniProt Q08881). In words: biochemical.
A further experiment has as its target TEC (Homo sapiens (Human), UniProt P42680). In words: biochemical.
The next experiment deals with LCK (Homo sapiens (Human), UniProt P06239). The conditions noted are these: read-out: LCK IC50; [ATP]=20 μM, LCK=0.2 nM.
The target in another experiment is EGFR (Homo sapiens (Human), UniProt P00533). As to the kind of experiment: biochemical.
The target of experiment [2] is Btk (Mus musculus (Mouse), UniProt P35991). As to the kind of experiment: Btk occupancy in vivo (PBMCs or splenocytes, PCI-33380 labeling). The note with it: 4 hours after dosing, Babc/L mice.
Protocol: For analysis of Btk occupancy in Babc/L mice following oral dosing of compounds after 4 hours. Isolating peripheral blood mononuclear cells (PBMCs) with mouse peripheral blood separation kit (Hao Yang Biological Manufacture CO., LTD, Tianjin) were collected from Babc/L mice (1 ml blood from two mice). Spleens were processed to splenocytes followed by 5 min incubation in red blood cell lysing buffer (from mouse peripheral blood separation kit).
Experiment [3] deals with T1, BTK. As to the kind of experiment: biochemical.
Protocol: as §1

Like-named read-outs stand apart in the source and are kept apart here.

Sequence of Btk (P35991 whole entry, looked up): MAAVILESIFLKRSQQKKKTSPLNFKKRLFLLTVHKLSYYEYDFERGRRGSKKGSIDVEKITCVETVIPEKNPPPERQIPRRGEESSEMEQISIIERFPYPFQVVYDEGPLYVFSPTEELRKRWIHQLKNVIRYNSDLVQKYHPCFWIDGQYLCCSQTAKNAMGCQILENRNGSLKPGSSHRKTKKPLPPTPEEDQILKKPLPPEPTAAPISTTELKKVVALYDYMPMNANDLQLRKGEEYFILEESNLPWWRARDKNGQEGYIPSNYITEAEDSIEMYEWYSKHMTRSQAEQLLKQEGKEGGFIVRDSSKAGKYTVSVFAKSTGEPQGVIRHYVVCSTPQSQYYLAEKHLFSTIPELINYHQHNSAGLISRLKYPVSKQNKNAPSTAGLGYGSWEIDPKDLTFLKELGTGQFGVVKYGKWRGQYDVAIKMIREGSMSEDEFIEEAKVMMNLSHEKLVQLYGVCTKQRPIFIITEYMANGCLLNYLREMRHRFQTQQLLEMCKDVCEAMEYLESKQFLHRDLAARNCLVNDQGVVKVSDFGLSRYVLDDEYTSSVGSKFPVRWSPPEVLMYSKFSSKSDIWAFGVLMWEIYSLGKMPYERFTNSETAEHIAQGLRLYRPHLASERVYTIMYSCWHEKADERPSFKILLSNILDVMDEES
Sequence of TEC (P42680 whole entry, looked up): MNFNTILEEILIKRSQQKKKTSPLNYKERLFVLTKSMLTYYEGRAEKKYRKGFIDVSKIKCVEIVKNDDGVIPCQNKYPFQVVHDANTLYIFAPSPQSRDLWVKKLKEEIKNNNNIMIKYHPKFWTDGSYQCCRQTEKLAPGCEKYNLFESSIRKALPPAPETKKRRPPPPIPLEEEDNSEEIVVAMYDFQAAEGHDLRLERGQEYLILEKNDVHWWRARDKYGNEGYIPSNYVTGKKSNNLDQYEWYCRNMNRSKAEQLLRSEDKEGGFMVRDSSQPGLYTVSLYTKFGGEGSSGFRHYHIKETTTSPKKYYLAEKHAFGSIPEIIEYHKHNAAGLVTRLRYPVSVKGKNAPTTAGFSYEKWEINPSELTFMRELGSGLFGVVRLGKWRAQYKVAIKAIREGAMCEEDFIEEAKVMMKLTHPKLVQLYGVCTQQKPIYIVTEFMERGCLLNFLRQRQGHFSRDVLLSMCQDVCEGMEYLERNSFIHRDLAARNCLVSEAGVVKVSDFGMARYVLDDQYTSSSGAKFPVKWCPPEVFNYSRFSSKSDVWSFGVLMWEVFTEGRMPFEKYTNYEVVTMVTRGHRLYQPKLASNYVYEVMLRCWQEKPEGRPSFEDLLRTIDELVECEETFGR
Sequence of ITK (Q08881 whole entry, looked up, species assumed): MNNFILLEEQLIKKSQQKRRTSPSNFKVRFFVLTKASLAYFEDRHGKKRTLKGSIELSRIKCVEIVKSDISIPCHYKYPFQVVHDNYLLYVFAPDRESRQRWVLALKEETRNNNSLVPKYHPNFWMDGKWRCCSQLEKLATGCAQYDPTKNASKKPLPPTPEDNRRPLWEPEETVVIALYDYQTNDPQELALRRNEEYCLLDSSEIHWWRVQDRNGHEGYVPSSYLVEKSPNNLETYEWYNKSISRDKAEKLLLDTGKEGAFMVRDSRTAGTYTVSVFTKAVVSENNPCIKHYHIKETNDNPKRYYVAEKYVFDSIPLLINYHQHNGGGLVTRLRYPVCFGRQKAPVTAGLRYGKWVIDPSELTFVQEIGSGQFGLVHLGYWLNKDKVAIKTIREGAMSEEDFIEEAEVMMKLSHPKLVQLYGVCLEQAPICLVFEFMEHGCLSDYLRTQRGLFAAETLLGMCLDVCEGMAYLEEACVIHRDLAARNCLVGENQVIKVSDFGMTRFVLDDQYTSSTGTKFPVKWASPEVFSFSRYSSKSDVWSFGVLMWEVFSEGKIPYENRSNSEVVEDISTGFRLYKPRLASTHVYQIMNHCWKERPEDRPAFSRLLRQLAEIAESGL
T1 sequence (Q06187 whole entry, looked up, species assumed): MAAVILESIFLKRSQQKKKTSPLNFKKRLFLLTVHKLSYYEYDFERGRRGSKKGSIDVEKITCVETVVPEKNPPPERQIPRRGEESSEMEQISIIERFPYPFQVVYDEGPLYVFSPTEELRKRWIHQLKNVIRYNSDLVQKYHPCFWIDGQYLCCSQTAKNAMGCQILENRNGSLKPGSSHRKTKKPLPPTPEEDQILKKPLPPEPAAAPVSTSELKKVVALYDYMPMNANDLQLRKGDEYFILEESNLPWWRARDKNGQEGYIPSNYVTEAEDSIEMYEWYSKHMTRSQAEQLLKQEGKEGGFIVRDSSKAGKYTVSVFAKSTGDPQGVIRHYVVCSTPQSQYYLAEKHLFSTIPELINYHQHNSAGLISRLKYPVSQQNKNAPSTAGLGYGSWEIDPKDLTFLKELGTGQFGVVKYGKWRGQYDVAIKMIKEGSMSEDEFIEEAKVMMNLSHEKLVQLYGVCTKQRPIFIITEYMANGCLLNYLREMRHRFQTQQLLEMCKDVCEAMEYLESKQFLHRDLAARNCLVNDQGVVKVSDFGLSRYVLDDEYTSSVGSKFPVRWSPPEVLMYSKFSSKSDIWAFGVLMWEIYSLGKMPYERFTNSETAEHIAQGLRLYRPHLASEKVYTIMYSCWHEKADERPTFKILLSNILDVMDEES
Sequence of LCK (P06239 whole entry, looked up, species assumed): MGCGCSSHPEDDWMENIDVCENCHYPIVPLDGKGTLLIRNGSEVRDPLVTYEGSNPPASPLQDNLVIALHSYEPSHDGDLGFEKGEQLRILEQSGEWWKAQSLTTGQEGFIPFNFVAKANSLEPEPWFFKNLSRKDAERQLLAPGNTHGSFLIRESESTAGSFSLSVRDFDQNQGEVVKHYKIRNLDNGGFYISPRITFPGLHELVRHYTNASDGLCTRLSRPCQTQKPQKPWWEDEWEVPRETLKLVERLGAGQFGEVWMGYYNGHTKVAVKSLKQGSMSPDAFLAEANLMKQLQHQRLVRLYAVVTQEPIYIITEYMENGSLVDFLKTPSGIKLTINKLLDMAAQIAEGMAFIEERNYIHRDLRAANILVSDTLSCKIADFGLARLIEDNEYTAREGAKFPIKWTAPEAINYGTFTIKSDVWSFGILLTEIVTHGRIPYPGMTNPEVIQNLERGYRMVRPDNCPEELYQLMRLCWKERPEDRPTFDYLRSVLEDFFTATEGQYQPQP
Sequence of EGFR (P00533 whole entry, looked up, species assumed): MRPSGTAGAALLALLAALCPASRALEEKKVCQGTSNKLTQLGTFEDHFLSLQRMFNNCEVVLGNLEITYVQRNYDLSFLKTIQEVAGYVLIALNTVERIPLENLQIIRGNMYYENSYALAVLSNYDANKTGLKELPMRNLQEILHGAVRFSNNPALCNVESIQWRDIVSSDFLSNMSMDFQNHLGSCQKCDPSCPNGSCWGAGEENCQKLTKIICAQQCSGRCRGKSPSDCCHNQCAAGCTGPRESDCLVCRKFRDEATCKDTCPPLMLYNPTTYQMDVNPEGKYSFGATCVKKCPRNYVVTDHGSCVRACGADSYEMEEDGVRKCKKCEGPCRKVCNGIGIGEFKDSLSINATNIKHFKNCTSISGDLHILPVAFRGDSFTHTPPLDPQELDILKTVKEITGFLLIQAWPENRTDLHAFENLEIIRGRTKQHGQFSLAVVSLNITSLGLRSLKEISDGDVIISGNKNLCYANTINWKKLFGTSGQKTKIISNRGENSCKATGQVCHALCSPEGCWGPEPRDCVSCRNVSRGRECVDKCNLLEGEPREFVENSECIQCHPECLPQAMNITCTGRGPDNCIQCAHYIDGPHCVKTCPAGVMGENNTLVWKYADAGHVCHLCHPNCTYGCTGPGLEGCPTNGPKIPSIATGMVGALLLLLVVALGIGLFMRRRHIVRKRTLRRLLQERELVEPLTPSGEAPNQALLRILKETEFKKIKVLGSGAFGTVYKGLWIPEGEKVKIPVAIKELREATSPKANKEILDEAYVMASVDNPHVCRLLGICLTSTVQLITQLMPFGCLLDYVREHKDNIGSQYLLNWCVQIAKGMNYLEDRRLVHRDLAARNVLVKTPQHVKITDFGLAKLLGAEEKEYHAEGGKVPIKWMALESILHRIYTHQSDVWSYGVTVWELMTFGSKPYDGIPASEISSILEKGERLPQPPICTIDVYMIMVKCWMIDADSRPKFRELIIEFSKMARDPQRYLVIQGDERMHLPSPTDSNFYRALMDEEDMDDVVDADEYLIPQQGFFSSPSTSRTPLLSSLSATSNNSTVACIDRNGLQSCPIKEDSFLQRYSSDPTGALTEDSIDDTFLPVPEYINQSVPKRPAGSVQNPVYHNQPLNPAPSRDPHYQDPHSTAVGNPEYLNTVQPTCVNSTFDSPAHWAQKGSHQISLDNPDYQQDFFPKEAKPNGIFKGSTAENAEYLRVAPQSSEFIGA
Sequence of LYN (P07948 whole entry, looked up, species assumed): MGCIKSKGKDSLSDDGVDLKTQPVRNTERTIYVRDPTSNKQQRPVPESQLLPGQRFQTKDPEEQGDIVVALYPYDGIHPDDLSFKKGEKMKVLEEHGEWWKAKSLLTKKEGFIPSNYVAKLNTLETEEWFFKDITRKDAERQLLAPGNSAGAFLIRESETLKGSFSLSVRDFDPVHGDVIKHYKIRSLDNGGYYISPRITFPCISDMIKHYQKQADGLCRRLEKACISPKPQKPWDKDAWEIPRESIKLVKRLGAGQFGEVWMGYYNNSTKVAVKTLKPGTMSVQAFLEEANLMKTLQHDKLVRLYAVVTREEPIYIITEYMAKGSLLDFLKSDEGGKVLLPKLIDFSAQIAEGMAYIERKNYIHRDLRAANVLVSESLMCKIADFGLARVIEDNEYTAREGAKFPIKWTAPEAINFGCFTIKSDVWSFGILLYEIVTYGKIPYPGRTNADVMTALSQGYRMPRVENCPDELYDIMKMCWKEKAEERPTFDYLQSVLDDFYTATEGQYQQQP
Protocol for LCK: as §1
(§2) For LYN assay, [ATP]=20 μM, LYN=0.12 n M. For LCK assay, [ATP]=20 μM, LCK=0.2 nM.
Protocol for LYN: as §1, §2

Turning to `C=CC(=O)N1CCC[C@@H](c2nc(-c3ccc(Oc4cccc(OC)c4F)cc3)c3cnccn23)C1` [Example 1, (R)-1-(3-(1-(4-(2-fluoro-3-methoxyphenoxy)phenyl)imidazo[1,5-a]pyrazin-3-yl)piperidin-1-yl)prop-2-en-1-one], the IC50 is over 10 µM on LYN; under 10 nM at BTK [1] (read-out: BTK IC50); under 10 nM on BTK [1] (read-out: BTK Inhibition); 1 to 10 µM against ITK; 100 to 1000 nM against TEC; over 10 µM at LCK. Further, the IC50 against EGFR fell in the range of 100 to 1000 nM. The “Btk occupancy in vivo” value at Btk [2] (5 mg/kg single oral dose) is “full occupancy”.

Regarding `CC#CC(=O)N1CCCC[C@H]1c1nc(-c2ccc(Oc3cccc(OC)c3F)cc2)c2c(C)nccn12` [Example 5, (S)-1-(2-(1-(4-(2-Fluoro-3-methoxyphenoxy)phenyl)-8-methylimidazo[1,5-a]pyrazin-3-yl)piperidin-1-yl)but-2-yn-1-one], on Btk [2] (10 mg/kg single oral dose), the “Btk occupancy in vivo” value is “full occupancy”.

As for `C=CC(=O)N1CCC[C@H]1c1nc(-c2ccc(Oc3cccc(OC)c3)cc2)c2cnccn12` [Example 16, (S)-1-(2-(1-(4-(3-methoxyphenoxy)phenyl)imidazo[1,5-a]pyrazin-3-yl)pyrrolidin-1-yl)prop-2-en-1-one], the IC50 at LYN is over 10 µM; at BTK [1] (read-out: BTK IC50) it was under 10 nM; on BTK [1] (read-out: BTK Inhibition), under 10 nM; against ITK it was 1 to 10 µM; against TEC it was 100 to 1000 nM; on LCK it was over 10 µM. The molecule further gave an IC50 against EGFR of 1000 to 10000 nM.

As for `C=CC(=O)N1CCC[C@H]1c1nc(-c2ccc(Oc3cccc(F)c3F)cc2)c2cnccn12` [Example 20, (S)-1-(2-(1-(4-(2,3-difluorophenoxy)phenyl)imidazo[1,5-a]pyrazin-3-yl)pyrrolidin-1-yl)prop-2-en-1-one], the IC50 on LYN was over 10 µM; at BTK [1] (read-out: BTK IC50) it was under 10 nM; on BTK [1] (read-out: BTK Inhibition), under 10 nM; at ITK it was 1 to 10 µM; against TEC, 100 to 1000 nM; on LCK, over 10 µM. This molecule also showed an IC50 on EGFR of 1000 to 10000 nM.

Take `C=CC(=O)N1CCCC[C@H]1c1nc(-c2ccc(Oc3cccc(OC)c3F)cc2)c2c(C)nccn12` [Example 27, (S)-1-(2-(1-(4-(2-fluoro-3-methoxyphenoxy)phenyl)-8-methylimidazo[1,5-a]pyrazin-3-yl)piperidin-1-yl)prop-2-en-1-one]: the IC50 on LYN was over 10 µM; on BTK [1] (read-out: BTK IC50), under 10 nM; at BTK [1] (read-out: BTK Inhibition), under 10 nM; on ITK it was 1 to 10 µM; against TEC, 100 to 1000 nM; on LCK, over 10 µM. The IC50 against EGFR lay within 100 to 1000 nM. Further, the “Btk occupancy in vivo” value on Btk [2] (10 mg/kg single oral dose) was “full occupancy”.

As for `C=CC(=O)N1CCC[C@H]1c1nc(-c2ccc(Oc3cccc(OC)c3F)cc2)c2cnccn12` [Example 30, (S)-1-(2-(1-(4-(2-fluoro-3-methoxyphenoxy)phenyl)imidazo[1,5-a]pyrazin-3-yl)pyrrolidin-1-yl)prop-2-en-1-one], the IC50 is over 10 µM on LYN; under 10 nM at BTK [1] (read-out: BTK IC50); under 10 nM on BTK [1] (read-out: BTK Inhibition); 100 to 1000 nM against TEC; over 10 µM at LCK. Also, the “Btk occupancy in vivo” value on Btk [2] (5 mg/kg single oral dose) is recorded as “full occupancy”.

In the case of `C=CC(=O)N1CCC[C@H]1c1nc(-c2ccc(OCc3c(F)cccc3F)cc2)c2cnccn12` [Example 136, (S)-1-(2-(1-(4-((2,6-difluorobenzyl)oxy)phenyl)imidazo[1,5-a]pyrazin-3-yl)pyrrolidin-1-yl)prop-2-en-1-one], the IC50 was over 10 µM at LYN; 10 to 100 nM at BTK [1] (read-out: BTK IC50); 10 to 100 nM at BTK [3]; 1 to 10 µM on ITK; 100 to 1000 nM against TEC; over 10 µM at LCK. Besides, the IC50 on EGFR was 1000 to 10000 nM.
